The test system of data set [1] is Bacteroides fragilis. Put plainly: in vitro uptake of radionuclide-labeled nitroimidazole derivatives (gamma counter). The following applies: for uptake by obligate anaerobes compared with facultative anaerobes: 26 to 37 KBq radiolabeled derivative, anaerobic, 37° C., rate of uptake per 10^8 CFU (FIGS. 3-6). Type of data set: cell-based.
The test system of data set [2] is E.coli (ATCC25922). Nature of the data set: in vitro uptake of nitroimidazole derivative under anaerobic environment (absorbance of supernatant). Type of data set: cell-based. The settings on record: 100 μM metronidazole, 37° C., rate of uptake per 10^8 CFU (FIG. 1).
Data set [3] relates to Bacteroides fragilis (ATCC25285). The description is as above. The settings on record: 37° C. It is filed as cell-based.
Data set [4] deals with attenuated Mycobacterium bovis (BCG, ATCC35734). Type of data set: cell-based. The settings on record: anaerobic, 37° C.
Data set [5] is classed as in vivo.
Data set [6] has as its system E.coli (ATCC25922). Put plainly: rat subcutaneous infection model, infected skin site. Type of data set: in vivo. The following applies: SD rat, i.v. 6.5 hours before blood collection. As for the experimental part:
(§1) An in vivo assay was performed using a rat subcutaneous infection model. As the nitroimidazole derivative, Compound 1 or Compound 2 was used. As the microorganism, two strains of Bacteroides fragilis (ATCC25285, NCTC10581), which is susceptible to metronidazole, or E.coli (ATCC25922), which is not susceptible to metronidazole, was used. A 6-week-old male SD rat was administered with 5×10^9 cfu/0.1 ml bacteria suspended in physiological saline subcutaneously into the left thigh, and then served for evaluation four days later. Approximately 0.74 MBq of Compound 1 or Compound 2 was administered via the vena jugularis externa, and three hours later, blood was collected and tissues were excised. Also, for evaluation of inflammation in the infection model, approximately 0.15 MBq of [^67Ga]gallium citrate (FUJIFILM RI Pharma Co., Ltd.), which is a radioactive diagnostic agent for inflammation, was administered via the vena jugularis externa 6.5 hours before blood collection. The viable bacteria in the infected tissue was confirmed by smearing a part of the infected skin tissue on a medium and culturing it. Radioactivity (cpm) of each of ^67Ga and ^125I was measured in blood, in the infected skin site, and in the non-infection site on the skin. Radioactivity of ^125I was measured after attenuating the radioactivity of ^67Ga. The amount accumulated in each tissue and % ID/g (the ratio of radioactivity per tissue weight relative to the radioactivity administered) were calculated.

For data set [7], the system named is Bacteroides fragilis (ATCC25285, NCTC10581). Described as above. Type of data set: in vivo. The settings on record: SD rat, i.v. 6.5 hours before blood collection. The protocol:
as §1

Data set [8] can be described thus: rat subcutaneous infection model, non-infected skin site. Type of data set: in vivo. The following applies: SD rat, i.v. 6.5 hours before blood collection. As for the experimental part: as §1, with “The viable bacteria in the infected tissue was confirmed by smearing a part of the infected skin tissue on a medium and culturing it.” left out
[9] abbreviates: approx. 0.74 MBq i.v., three hours later.

Where two headings read alike, the source gives them in different places.

Regarding “[^67Ga] Ga-DOTA-(metronidazole)2 [Compound 3]”, in data set [1], the “uptake by obligate anaerobes compared with facultative anaerobes” value (from here on “uptake … compared with facultative anaerobes”) was “taken up in a greater amount by obligate anaerobes than by facultative anaerobes”. Also, the “rate of uptake versus number of viable obligate anaerobes” value in data set [1] (37° C. for 120 minutes, 0.43×10^8 to 6.75×10^8 CFU/mL viable Bacteroides fragilis (FIG. 7)) is “increased in a manner correlated with the number of viable obligate anaerobes”.
Consider `Cc1ncc([N+](=O)[O-])n1CCO` [Metronidazole, metronidazole], for which the “uptake by the facultative anaerobe E.coli” value in data set [2] was “taken up in little amount”. The “uptake by the obligate anaerobe Bacteroides fragilis” value in data set [3] (100 μM metronidazole, rate of uptake per 10^8 CFU (FIG. 1)) is “taken up in a large amount”.
For the molecule `O=C(NCCn1ccnc1[N+](=O)[O-])c1cccc(I)c1` [Compound 2, N1-[2-(2-nitro-1H-1-imidazolyl)ethyl]-3-iodobenzamide], in data set [4] (Compound 2 0.1 mM, rate of uptake per 10^7 CFU (FIG. 9)), the “uptake by BCG compared with E.coli” value was “clearly taken up in a greater amount by nitroimidazole derivative susceptible BCG than by non-nitroimidazole derivative susceptible E.coli”. Further, the “uptake … compared with facultative anaerobes” value in data set [1] is given as “taken up in a greater amount by obligate anaerobes than by facultative anaerobes”. The “amount accumulated in the inflammatory skin site/blood” value in data set [5] (setting [9]) is given as 0.73±0.11.
For `Cc1ncc([N+](=O)[O-])n1CCNC(=O)c1cccc(I)c1` [Compound 1, [^125I]N1-[2-(2-methyl-5-nitro-1H-1-imidazolyl)ethyl]-3-iodobenzamide], the “uptake … compared with facultative anaerobes” value in data set [1] is “taken up in a greater amount by obligate anaerobes than by facultative anaerobes”. For the same molecule, in data set [5] (setting [9]), the “amount accumulated in the inflammatory skin site/blood” value was found to be 0.85±0.25.
Take “fluorine-18-labeled fluoromisonidazole [[^18F]FMISO]”: in data set [1], the “uptake … compared with facultative anaerobes” value is reported as “taken up in a greater amount by obligate anaerobes than by facultative anaerobes”.
In the case of `O=C([O-])CC(O)(CC(=O)[O-])C(=O)[O-].[67Ga+3]` [[^67Ga]gallium citrate], in data set [5] (rat, in vivo, iv), the “amount accumulated in the inflammatory skin site/blood” value turned out to be 1.61±0.16. For the same molecule, the “amount accumulated in the infected skin site/blood” value is reported as 1.73±0.7 in data set [6], 1.75 ±0.2 in data set [7] (Bacteroides fragilis (ATCC25285)) and 1.89±0.4 in data set [7] (Bacteroides fragilis (NCTC10581)). Further, the “amount accumulated in the non-infected skin site/blood” value in data set [8] is listed as 0.41±0.06.
As for `O=[N+]([O-])c1nccn1CC(O)CF` (centres unmarked) [[^19F]FMISO, fluoromisonidazole], the “uptake by acid-fast bacteria compared with E.coli” value in data set [4] ([^19F]FMISO 0.09 mM, E.coli data from Example 1 (FIG. 10)) is listed as “taken up in a greater amount by nitroimidazole derivative susceptible Mycobacterium tuberculosis in the resting stage of division than by nitroimidazole derivative non-susceptible E.coli”. Besides, the “uptake … compared with facultative anaerobes” value in data set [3] (70 μM [^19F]FMISO, B.fragilis vs E.coli (FIG. 2)) is “taken up in a greater amount by obligate anaerobes than by facultative anaerobes”.

Source of the values: US20120219500A1, “DIAGNOSTIC AGENT FOR INFECTIOUS DISEASES” (FUJIFILM RI PHARMA CO., LTD., priority 2009, published 2012).
